Columns and labels:
carboxypeptidase Y = target: T1, carboxypeptidase Y (Saccharomyces cerevisiae, UniProt P00729); type: in vitro ADME; conditions: after 2 h at 95 °C; CFB-produced lasso peptide from native BGC; Figure S7
T1 sequence (P00729 112-532): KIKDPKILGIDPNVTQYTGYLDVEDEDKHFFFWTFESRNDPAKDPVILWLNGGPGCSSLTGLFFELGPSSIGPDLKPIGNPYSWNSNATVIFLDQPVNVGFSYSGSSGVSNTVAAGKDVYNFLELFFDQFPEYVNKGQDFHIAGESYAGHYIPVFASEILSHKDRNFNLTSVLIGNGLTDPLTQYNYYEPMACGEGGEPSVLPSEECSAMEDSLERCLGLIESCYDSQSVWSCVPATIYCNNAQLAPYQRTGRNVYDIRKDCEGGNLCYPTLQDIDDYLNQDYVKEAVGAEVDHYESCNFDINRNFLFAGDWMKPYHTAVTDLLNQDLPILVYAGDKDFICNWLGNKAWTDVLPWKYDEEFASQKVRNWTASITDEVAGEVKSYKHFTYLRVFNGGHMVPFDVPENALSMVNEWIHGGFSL

[1] = cited from earlier work
[2] = tested on: transcription/translation (production of the fluorescent protein mCherry); type: biochemical, E. coli; conditions: CFB-produced capistruin supplied at 10 µM; compared to a control that omitted capistruin; fluorescence reporter

Substance: cellulassin
- carboxypeptidase Y resistance after prolonged heating (carboxypeptidase Y): efficient carboxypeptidase Y digestion

Substance: fusilassin
- carboxypeptidase Y resistance after prolonged heating (carboxypeptidase Y): efficient carboxypeptidase Y digestion
- conformation after extended exposure to organic solvent [1]: adopted a branched-cyclic form

Substance: capistruin (GTPGFQTPDARVISRFGFN; Capistruin; UniProt P0DQM5 29-47, looked up)
- reduction in mCherry production [2]: 66%

Substance: burhizin
- carboxypeptidase Y resistance after prolonged heating (carboxypeptidase Y): retained protease resistance

Source: PMC8062304 (Journal of the American Chemical Society, 2021)
